US8574831B2, “Mutational profiles in HIV-1 reverse transcriptase correlated with phenotypic drug resistance” (Virco N.V., priority 2000, dated 2013)

Test system: HIV with mutations in the HIV protease sequence
Experiment: Phenotypic fold resistance to protease inhibitors, protease mutations 84A/84L/84C/54M/54L/54V in a background (Examples 8-13)
Assay type: cell-based, HIV-1
Procedure, shortened: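 Fold-resistance equals chimeric-virus IC50 divided by IC50 of a parallel wild-type reference HIV-1 strain. Chimeras come from PCR-amplified PR/RT genes recombined into PR/RT-deleted HXB2 proviral DNA inside CD4+ T cells, then cultured with graded drug concentrations.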

Question: Which results are given for CC(C)(C)NC(=O)[C@@H]1C[C@@H]2CCCC[C@@H]2CN1C[C@@H](O)[C@H](Cc1ccccc1)NC(=O)[C@H](CC(N)=O)NC(=O)c1ccc2ccccc2n1 [Saquinavir, saquinavir]?
Answer: Fold change in IC50 (Table 12, V055199, genotype 10I + 33F + 54M + 90M): 5.6 fold; Fold change in IC50 (Table 13, V19263, genotype 77I): 0.3 fold; Fold change in IC50 (Table 13, V20160, genotype WT): 0.9 fold; Fold change in IC50 (Table 13, V021667, genotype 10I): 0.9 fold; Fold change in IC50 (Table 13, V030496, genotype 10I + 77I): 0.3 fold; Fold change in IC50 (Table 13, V048868, genotype 10I + 54L + 71V + 77I + 90M): 16.5 fold; Fold change in IC50 (Table 13, V048874, genotype 10I + 33F + 54L + 71V + 77I + 90M): 4.6 fold; Fold change in IC50 (Table 13, V048875, genotype 10I + 33F + 54L + 71V + 77I + 90M): 12.0 fold; Fold change in IC50 (Table 13, V048877, genotype 10I + 33F + 77I + 90M): 1.5 fold; Fold change in IC50 (Table 13, V048880, genotype 10I + 33F + 77I + 90M): 2.7 fold; Fold change in IC50 (Table 13, V052940, genotype 71V): 0.8 fold; Fold change in IC50 (Table 13, V052942, genotype 10I + 71V): 0.8 fold; Fold change in IC50 (Table 13, V052943, genotype 10I + 90M): 1.1 fold; Fold change in IC50 (Table 13, V052944, genotype 10I + 90M): 0.7 fold; Fold change in IC50 (Table 13, V052945, genotype 77I + 90M): 1.4 fold; Fold change in IC50 (Table 13, V052946, genotype 71V + 90M): 1.4 fold; Fold change in IC50 (Table 13, V052947, genotype 10I + 77I + 90M): 3.9 fold; Fold change in IC50 (Table 13, V052948, genotype 10I + 71V + 90M): 4.8 fold; Fold change in IC50 (Table 13, V052949, genotype 10I + 71V + 77I + 90M): 2.1 fold; Fold change in IC50 (Table 13, V052950, genotype 33F): 1.2 fold; Fold change in IC50 (Table 13, V052951, genotype 33F + 77I): 0.4 fold; Fold change in IC50 (Table 13, V052953, genotype 10I + 33F + 77I): 1.2 fold; Fold change in IC50 (Table 13, V052954, genotype 33F + 77I + 90M): 1.7 fold; Fold change in IC50 (Table 13, V052955, genotype 33F + 71V + 90M): 20.4 fold; Fold change in IC50 (Table 13, V052968, genotype 10L/I + 33F/L + 54L + 77I): 1.5 fold; Fold change in IC50 (Table 13, V052969, genotype 10I + 33F + 54L + 90M): 1.4 fold; Fold change in IC50 (Table 13, V052970, genotype 54L): 0.7 fold; Fold change in IC50 (Table 13, V052971, genotype 10I + 54L): 0.7 fold; Fold change in IC50 (Table 13, V052972, genotype 54L + 77I): 1.0 fold; Fold change in IC50 (Table 13, V052973, genotype 10I + 54L + 77I): 0.8 fold; Fold change in IC50 (Table 13, V052974, genotype 10I + 54L + 90M): 1.1 fold; Fold change in IC50 (Table 13, V052975, genotype 10I + 54L + 71V + 90M): 24.2 fold; Fold change in IC50 (Table 13, V052976, genotype 10I + 54L + 71V + 77I + 90M): 1.8 fold; Fold change in IC50 (Table 13, V053832, genotype 10I + 33F): 0.5 fold; Fold change in IC50 (Table 13, V053854, genotype 54L + 71V): 0.9 fold; Fold change in IC50 (Virco ID 214846, genotype 10I + 33F + 54V + 71V + 77I + 90M, vs mean IC50 of wild type laboratory HIV strain): 27.8 fold; Fold change in IC50 (Virco ID V021667, genotype 10I, vs mean IC50 of wild type laboratory HIV strain): 0.9 fold; Fold change in IC50 (Virco ID V030496, genotype 10I + 77I, vs mean IC50 of wild type laboratory HIV strain): 0.3 fold; Fold change in IC50 (Virco ID V048876, genotype 33F + 54V + 77I + 90M, vs mean IC50 of wild type laboratory HIV strain): 1.5 fold; Fold change in IC50 (Virco ID V048877, genotype 10I + 33F + 77I + 90M, vs mean IC50 of wild type laboratory HIV strain): 1.5 fold; Fold change in IC50 (Virco ID V048880, genotype 10I + 33F + 77I + 90M, vs mean IC50 of wild type laboratory HIV strain): 2.7 fold; Fold change in IC50 (Virco ID V052940, genotype 71V, vs mean IC50 of wild type laboratory HIV strain): 0.8 fold; Fold change in IC50 (Virco ID V052942, genotype 10I + 71V, vs mean IC50 of wild type laboratory HIV strain): 0.8 fold; Fold change in IC50 (Virco ID V052943, genotype 10I + 90M, vs mean IC50 of wild type laboratory HIV strain): 1.1 fold; Fold change in IC50 (Virco ID V052944, genotype 10I + 90M, vs mean IC50 of wild type laboratory HIV strain): 0.7 fold; Fold change in IC50 (Virco ID V052946, genotype 71V + 90M, vs mean IC50 of wild type laboratory HIV strain): 1.4 fold; Fold change in IC50 (Virco ID V052947, genotype 10I + 77I + 90M, vs mean IC50 of wild type laboratory HIV strain): 3.9 fold; Fold change in IC50 (Virco ID V052948, genotype 10I + 71V + 90M, vs mean IC50 of wild type laboratory HIV strain): 4.8 fold; Fold change in IC50 (Virco ID V052949, genotype 10I + 71V + 77I + 90M, vs mean IC50 of wild type laboratory HIV strain): 2.1 fold; Fold change in IC50 (Virco ID V052950, genotype 33F, vs mean IC50 of wild type laboratory HIV strain): 1.2 fold; Fold change in IC50 (Virco ID V052951, genotype 33F + 77I, vs mean IC50 of wild type laboratory HIV strain): 0.4 fold; Fold change in IC50 (Virco ID V052953, genotype 10I + 33F + 77I, vs mean IC50 of wild type laboratory HIV strain): 1.2 fold; Fold change in IC50 (Virco ID V052954, genotype 33F + 77I + 90M, vs mean IC50 of wild type laboratory HIV strain): 1.7 fold; Fold change in IC50 (Virco ID V052955, genotype 33F + 71V + 90M, vs mean IC50 of wild type laboratory HIV strain): 20.4 fold; Fold change in IC50 (Virco ID V052957, genotype 10I + 33F + 54V + 90M, vs mean IC50 of wild type laboratory HIV strain): 1.6 fold; Fold change in IC50 (Virco ID V052958, genotype 10I + 33F + 54V + 77I + 90M, vs mean IC50 of wild type laboratory HIV strain): 1.0 fold; Fold change in IC50 (Virco ID V052959, genotype 10I + 33F + 54V + 77I + 90M, vs mean IC50 of wild type laboratory HIV strain): 1.0 fold; Fold change in IC50 (Virco ID V052960, genotype 10I + 33F + 54V + 71V + 90M, vs mean IC50 of wild type laboratory HIV strain): 21.8 fold; Fold change in IC50 (Virco ID V052961, genotype 54V, vs mean IC50 of wild type laboratory HIV strain): 1.0 fold; Fold change in IC50 (Virco ID V052962, genotype 10I + 54V, vs mean IC50 of wild type laboratory HIV strain): 0.9 fold; Fold change in IC50 (Virco ID V052963, genotype 54V + 77I + 90M, vs mean IC50 of wild type laboratory HIV strain): 1.3 fold; Fold change in IC50 (Virco ID V052964, genotype 54V + 71V + 90M, vs mean IC50 of wild type laboratory HIV strain): 1.4 fold; Fold change in IC50 (Virco ID V052965, genotype 10I + 54V + 77I + 90M, vs mean IC50 of wild type laboratory HIV strain): 6.3 fold; Fold change in IC50 (Virco ID V052966, genotype 10I + 54V + 71V + 90M, vs mean IC50 of wild type laboratory HIV strain): 28.6 fold; Fold change in IC50 (Virco ID V052967, genotype 10I + 54V + 71V + 77I + 90M, vs mean IC50 of wild type laboratory HIV strain): 0.6 fold; Fold change in IC50 (Virco ID V053358, genotype 33F + 54V + 77I + 90M, vs mean IC50 of wild type laboratory HIV strain): 1.3 fold; Fold change in IC50 (Virco ID V053831, genotype 33F + 54V, vs mean IC50 of wild type laboratory HIV strain): 1.0 fold; Fold change in IC50 (Virco ID V053832, genotype 10I + 33F, vs mean IC50 of wild type laboratory HIV strain): 0.5 fold
